The supplement of paper PMC10307832

Legend:
Assay in all cases: relative viability (nuclei count vs DMSO), 5 days (fraction); higher = more cells survive
[1] = compound: CCN(CC)CCNC(=O)c1c(C)[nH]c(/C=C2\C(=O)Nc3ccc(F)cc32)c1C [Sunitinib]
Summary of the method: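 Vehicle-anchored 1536-well plates of lung cancer cell lines, held overnight at 37 °C, were pinned with five library-drug doses (not always all listed) spaced by √10. No medium change followed over the next 5 days, after which the cells were fixed, permeabilised and Hoechst-stained together and imaged at 4×. Nuclei were counted with MetaXpress, and viability is treated-well nuclei over vehicle-well nuclei, taken as a median across plates. Plates passed with control CV below 25% and at least one doubling.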

[2] = compound: CCN(CC)CCNC(=O)c1c(C)[nH]c(/C=C2\C(=O)Nc3ccc(F)cc32)c1C [Sunitinib] + Cc1cc(Nc2cc(N3CCN(C)CC3)nc(Sc3ccc(NC(=O)C4CC4)cc3)n2)n[nH]1 [Tozasertib] (partner 0.1 µM)
Summary of the method: (§1)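 Dosing by pin tool came one day after lung cancer cell lines were seeded in 1536-well plates, using either one drug or a fixed anchor-drug dose plus five library-drug doses (not always all listed) in √10 steps. After 5 days, nuclei were counted on 4× images. Relative viability is treated-well nuclei count divided by vehicle-well nuclei count, and values are medians of duplicate plates.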

[3] = compound: CCN(CC)CCNC(=O)c1c(C)[nH]c(/C=C2\C(=O)Nc3ccc(F)cc32)c1C [Sunitinib] + COc1cc2c(Oc3ccc(NC(=O)C4(C(=O)Nc5ccc(F)cc5)CC4)cc3F)ccnc2cc1OCCCN1CCOCC1 [Foretinib] (partner 0.25 µM)
Summary of the method: as §1

[4] = compound: CCN(CC)CCNC(=O)c1c(C)[nH]c(/C=C2\C(=O)Nc3ccc(F)cc32)c1C [Sunitinib] + Cc1nc(Nc2ncc(C(=O)Nc3c(C)cccc3Cl)s2)cc(N2CCN(CCO)CC2)n1 [Dasatinib] (partner 0.075 µM)
Summary of the method: as §1

[5] = compound: CCN(CC)CCNC(=O)c1c(C)[nH]c(/C=C2\C(=O)Nc3ccc(F)cc32)c1C [Sunitinib] + CCNC(=O)c1noc(-c2cc(C(C)C)c(O)cc2O)c1-c1ccc(CN2CCOCC2)cc1 [Luminespib] (partner 0.01 µM)
Summary of the method: as §1

[6] = compound: CCN(CC)CCNC(=O)c1c(C)[nH]c(/C=C2\C(=O)Nc3ccc(F)cc32)c1C [Sunitinib] + COc1cccc2cc(-c3nc([C@H]4CC[C@H](C(=O)O)CC4)n4ncnc(N)c34)[nH]c12 [OSI-027] (partner 0.5 µM)
Summary of the method: as §1

[7] = compound: CCN(CC)CCNC(=O)c1c(C)[nH]c(/C=C2\C(=O)Nc3ccc(F)cc32)c1C [Sunitinib] + N=C(N)NC(=N)NCCc1ccccc1 [Phenformin] (partner 250 µM)
Summary of the method: as §1

[8] = compound: CCN(CC)CCNC(=O)c1c(C)[nH]c(/C=C2\C(=O)Nc3ccc(F)cc32)c1C [Sunitinib] + C[C@@H](Oc1cc(-c2cnn(C3CCNCC3)c2)cnc1N)c1c(Cl)ccc(F)c1Cl [Crizotinib] (partner 1 µM)
Summary of the method: as §1

[9] = compound: CCN(CC)CCNC(=O)c1c(C)[nH]c(/C=C2\C(=O)Nc3ccc(F)cc32)c1C [Sunitinib] + CS(=O)(=O)N1CCN(Cc2cc3nc(-c4cccc5[nH]ncc45)nc(N4CCOCC4)c3s2)CC1 [Pictilisib] (partner 1 µM)
Summary of the method: as §1

[10] = compound: CCN(CC)CCNC(=O)c1c(C)[nH]c(/C=C2\C(=O)Nc3ccc(F)cc32)c1C [Sunitinib] + Cc1nc(NC(=O)N2CCC[C@H]2C(N)=O)sc1-c1ccnc(C(C)(C)C(F)(F)F)c1 [Alpelisib] (partner 2 µM)
Summary of the method: as §1

[11] = compound: CCN(CC)CCNC(=O)c1c(C)[nH]c(/C=C2\C(=O)Nc3ccc(F)cc32)c1C [Sunitinib] + C[C@]1(O)C[C@@H](c2nc(-c3ccc4ccc(-c5ccccc5)nc4c3)c3c(N)nccn32)C1 [Linsitinib] (partner 1 µM)
Summary of the method: as §1

[12] = compound: CCN(CC)CCNC(=O)c1c(C)[nH]c(/C=C2\C(=O)Nc3ccc(F)cc32)c1C [Sunitinib] + CC(C)C[C@H](NC(=O)[C@H](Cc1ccccc1)NC(=O)c1cnccn1)B(O)O [Bortezomib] (partner 0.002 µM)
Summary of the method: as §1

[13] = compound: CCN(CC)CCNC(=O)c1c(C)[nH]c(/C=C2\C(=O)Nc3ccc(F)cc32)c1C [Sunitinib] + Nc1nc2[nH]cc(CCc3ccc(C(=O)N[C@@H](CCC(=O)O)C(=O)O)cc3)c2c(=O)[nH]1 [Pemetrexed] (partner 0.2 µM)
Summary of the method: as §1

[14] = compound: CCN(CC)CCNC(=O)c1c(C)[nH]c(/C=C2\C(=O)Nc3ccc(F)cc32)c1C [Sunitinib] + CS(=O)(=O)CCNCc1ccc(-c2ccc3ncnc(Nc4ccc(OCc5cccc(F)c5)c(Cl)c4)c3c2)o1 [Lapatinib] (partner 2 µM)
Summary of the method: as §1

## NCI-H1623
[1]; 0.02 µM
  relative viability: 0.98
[1]; 0.06325 µM
  relative viability: 0.96
[1]; 0.2 µM
  relative viability: 0.994
[1]; 2 µM
  relative viability: 0.916
[2]; first compound 0.02 µM
  relative viability: 0.461
[2]; first compound 0.06325 µM
  relative viability: 0.434
[2]; first compound 0.2 µM
  relative viability: 0.446
[2]; first compound 0.6325 µM
  relative viability: 0.488
[2]; first compound 2 µM
  relative viability: 0.369
[3]; first compound 0.02 µM
  relative viability: 0.83
[3]; first compound 0.06325 µM
  relative viability: 0.843
[3]; first compound 0.2 µM
  relative viability: 0.955
[3]; first compound 0.6325 µM
  relative viability: 0.977
[3]; first compound 2 µM
  relative viability: 0.872
[4]; first compound 0.02 µM
  relative viability: 0.612
[4]; first compound 0.06325 µM
  relative viability: 0.507
[4]; first compound 0.2 µM
  relative viability: 0.574
[4]; first compound 0.6325 µM
  relative viability: 0.58
[4]; first compound 2 µM
  relative viability: 0.543
[5]; first compound 0.02 µM
  relative viability: 0.545
[5]; first compound 0.06325 µM
  relative viability: 0.545
[5]; first compound 0.2 µM
  relative viability: 0.682
[5]; first compound 0.6325 µM
  relative viability: 0.611
[5]; first compound 2 µM
  relative viability: 0.464
[6]; first compound 0.02 µM
  relative viability: 0.45
[6]; first compound 0.06325 µM
  relative viability: 0.393
[6]; first compound 0.2 µM
  relative viability: 0.474
[6]; first compound 0.6325 µM
  relative viability: 0.407
[6]; first compound 2 µM
  relative viability: 0.358
[7]; first compound 0.02 µM
  relative viability: 0.649
[7]; first compound 0.06325 µM
  relative viability: 0.499
[7]; first compound 0.2 µM
  relative viability: 0.581
[7]; first compound 0.6325 µM
  relative viability: 0.675
[7]; first compound 2 µM
  relative viability: 0.49

## NCI-H1563
[1]; 0.02 µM
  relative viability: 0.955
[1]; 0.06325 µM
  relative viability: 1.04
[1]; 0.2 µM
  relative viability: 0.969
[1]; 0.6325 µM
  relative viability: 0.939
[1]; 2 µM
  relative viability: 0.967
[3]; first compound 0.02 µM
  relative viability: 0.822
[3]; first compound 0.06325 µM
  relative viability: 1.05
[3]; first compound 0.2 µM
  relative viability: 0.999
[3]; first compound 0.6325 µM
  relative viability: 1.03
[3]; first compound 2 µM
  relative viability: 0.993
[8]; first compound 0.02 µM
  relative viability: 0.833
[8]; first compound 0.06325 µM
  relative viability: 0.878
[8]; first compound 0.2 µM
  relative viability: 0.805
[8]; first compound 0.6325 µM
  relative viability: 0.946
[8]; first compound 2 µM
  relative viability: 0.906
[4]; first compound 0.02 µM
  relative viability: 0.487
[4]; first compound 0.06325 µM
  relative viability: 0.505
[4]; first compound 0.2 µM
  relative viability: 0.441
[4]; first compound 0.6325 µM
  relative viability: 0.422
[4]; first compound 2 µM
  relative viability: 0.489
[9]; first compound 0.02 µM
  relative viability: 0.637
[9]; first compound 0.06325 µM
  relative viability: 0.641
[9]; first compound 0.2 µM
  relative viability: 0.695
[9]; first compound 0.6325 µM
  relative viability: 0.653
[9]; first compound 2 µM
  relative viability: 0.643
[10]; first compound 0.02 µM
  relative viability: 0.984
[10]; first compound 0.06325 µM
  relative viability: 0.952
[10]; first compound 0.2 µM
  relative viability: 0.884
[10]; first compound 0.6325 µM
  relative viability: 0.93
[10]; first compound 2 µM
  relative viability: 0.965
[5]; first compound 0.02 µM
  relative viability: 0.54
[5]; first compound 0.06325 µM
  relative viability: 0.566
[5]; first compound 0.2 µM
  relative viability: 0.5
[5]; first compound 0.6325 µM
  relative viability: 0.517
[5]; first compound 2 µM
  relative viability: 0.479
[11]; first compound 0.02 µM
  relative viability: 1.27
[11]; first compound 0.06325 µM
  relative viability: 1.23
[11]; first compound 0.2 µM
  relative viability: 1.23
[11]; first compound 0.6325 µM
  relative viability: 1.21
[11]; first compound 2 µM
  relative viability: 1.22
[12]; first compound 0.02 µM
  relative viability: 0.752
[12]; first compound 0.06325 µM
  relative viability: 0.918
[12]; first compound 0.2 µM
  relative viability: 0.897
[12]; first compound 0.6325 µM
  relative viability: 0.906
[12]; first compound 2 µM
  relative viability: 0.771
[13]; first compound 0.02 µM
  relative viability: 0.759
[13]; first compound 0.06325 µM
  relative viability: 0.727
[13]; first compound 0.2 µM
  relative viability: 0.782
[13]; first compound 0.6325 µM
  relative viability: 0.721
[13]; first compound 2 µM
  relative viability: 0.852
[6]; first compound 0.02 µM
  relative viability: 0.694
[6]; first compound 0.06325 µM
  relative viability: 0.79
[6]; first compound 0.2 µM
  relative viability: 0.766
[6]; first compound 0.6325 µM
  relative viability: 0.762
[6]; first compound 2 µM
  relative viability: 0.75
[14]; first compound 0.02 µM
  relative viability: 0.925
[14]; first compound 0.06325 µM
  relative viability: 0.988
[14]; first compound 0.2 µM
  relative viability: 1.03
[14]; first compound 0.6325 µM
  relative viability: 1.09
[14]; first compound 2 µM
  relative viability: 1.05
[7]; first compound 0.02 µM
  relative viability: 0.661
[7]; first compound 0.06325 µM
  relative viability: 0.707
[7]; first compound 0.2 µM
  relative viability: 0.738
[7]; first compound 2 µM
  relative viability: 0.706
